Measurements from ChEMBL document CHEMBL1133243, “Synthesis and antimicrobial activity of some isoindolin-1-ones derivatives” (2000).
In brackets after ≈: the same amount, converted by molar mass. Activity calls are given as the source filed them. The rule behind the calls is not given here.

What was measured:
[1] = Antimicrobial activity against aspergillus sp and Candida albicans; Inactive; type: functional
Bacteria [2] = assay: Antimicrobial activity against gram positive and gram negative bacteria; Active; type: functional, organism-based
Bacillus subtilis [3] = assay: Minimum inhibitory concentration against Bacillus subtilis; type: functional
Escherichia coli = assay: Minimum inhibitory concentration against Escherichia coli.; type: functional
Pseudomonas aeruginosa = assay: Minimum inhibitory concentration against Pseudomonas aeruginosa; type: functional
Staphylococcus aureus [4] = assay: Minimum inhibitory concentration against Staphylococcus aureus; type: functional
Kocuria rosea = assay: Minimum inhibitory concentration against Micrococcus roseus; type: functional
Bacteria [5] = assay: Antimicrobial activity against gram positive and gram negative bacteria; Inactive; type: functional, organism-based
Staphylococcus aureus [6] = assay: Compound was evaluated for minimum inhibitory concentration against Staphylococcus aureus; type: functional
Bacteria [7] = assay: Compound tested for in vitro antimicrobial activity against gram positive and gram negative bacteria; Active; type: functional, organism-based
Bacillus subtilis [8] = assay: Compound was evaluated for minimum inhibitory concentration against Bacillus subtilis;Zero growth inhibition; type: functional, organism-based
Staphylococcus aureus [9] = assay: Compound was evaluated for minimum inhibitory concentration against Staphylococcus aureus;Zero growth inhibition; type: functional, organism-based

MIC (Bacillus subtilis [3]) [µg/mL]	MIC (Escherichia coli) [µg/mL]	MIC (Pseudomonas aeruginosa) [µg/mL]	MIC (Staphylococcus aureus [4]) [µg/mL]	MIC (Kocuria rosea) [µg/mL]	MIC (Bacillus subtilis [8])	MIC (Staphylococcus aureus [9])	Structure (SMILES)	Activity [1]	Activity (Bacteria [2])	Activity (Bacteria [5])	Inhibition (Staphylococcus aureus [6]) [%]	Activity (Bacteria [7])
729 (≈ 2.95 mM)	3600 (≈ 14.6 mM)	3600 (≈ 14.6 mM)	3600 (≈ 14.6 mM)	3600 (≈ 14.6 mM)	–	–	CC(C)CC(C(=O)O)N1Cc2ccccc2C1=O (stereo not drawn)	inactive	Active	–	–	–
–	–	–	–	–	–	–	COc1ccc(N2Cc3ccccc3C2=O)cc1	inactive	–	inactive	–	–
729 (≈ 2.95 mM)	1620 (≈ 6.55 mM)	3600 (≈ 14.6 mM)	3600 (≈ 14.6 mM)	1180 (≈ 4.75 mM)	–	–	CCC(C)C(C(=O)O)N1Cc2ccccc2C1=O (stereo not drawn)	inactive	Active	–	–	–
–	–	–	–	–	–	–	O=C1c2ccccc2C2OCC(c3ccccc3)N12 (stereo not drawn)	inactive	–	inactive	–	–
729 (≈ 3.3 mM)	1620 (≈ 7.32 mM)	3600 (≈ 16.3 mM)	3600 (≈ 16.3 mM)	2610 (≈ 11.8 mM)	–	–	O=C(O)[C@H](CO)N1Cc2ccccc2C1=O	inactive	Active	–	–	–
–	–	–	–	–	–	–	CC(C)C1COC2c3ccccc3C(=O)N21 (stereo not drawn)	–	–	inactive	–	–
1620 (≈ 6.94 mM)	3600 (≈ 15.4 mM)	3600 (≈ 15.4 mM)	3600 (≈ 15.4 mM)	1620 (≈ 6.94 mM)	–	–	CC(C)[C@H](C(=O)O)N1Cc2ccccc2C1=O	inactive	Active	–	–	–
–	–	–	–	–	–	–	Cc1ccc(N2Cc3ccccc3C2=O)cc1	inactive	–	inactive	–	–
529 (≈ 1.98 mM)	1620 (≈ 6.06 mM)	3600 (≈ 13.5 mM)	–	729 (≈ 2.73 mM)	–	–	O=C(O)[C@H](c1ccccc1)N1Cc2ccccc2C1=O	inactive	Active	–	0	–
1180 (≈ 4.18 mM)	3600 (≈ 12.8 mM)	3600 (≈ 12.8 mM)	–	2610 (≈ 9.28 mM)	–	–	O=C(O)[C@H](Cc1ccccc1)N1Cc2ccccc2C1=O	inactive	Active	–	0	–
1620 (≈ 6.94 mM)	1620 (≈ 6.94 mM)	3600 (≈ 15.4 mM)	3600 (≈ 15.4 mM)	1620 (≈ 6.94 mM)	–	–	CC(C)[C@@H](C(=O)O)N1Cc2ccccc2C1=O	inactive	Active	–	–	–
147 (≈ 0.59 mM)	729 (≈ 2.93 mM)	1620 (≈ 6.5 mM)	3600 (≈ 14.4 mM)	2610 (≈ 10.5 mM)	–	–	O=C(O)C[C@@H](C(=O)O)N1Cc2ccccc2C1=O	inactive	Active	–	–	–
729 (≈ 3.55 mM)	1620 (≈ 7.89 mM)	3600 (≈ 17.5 mM)	1620 (≈ 7.89 mM)	1620 (≈ 7.89 mM)	–	–	C[C@@H](C(=O)O)N1Cc2ccccc2C1=O	inactive	–	–	–	Active
–	–	–	–	–	–	–	O=C1c2ccccc2C2OCC(Cc3ccccc3)N12 (stereo not drawn)	inactive	–	inactive	–	–
328 (≈ 1.6 mM)	3600 (≈ 17.5 mM)	3600 (≈ 17.5 mM)	1620 (≈ 7.89 mM)	2610 (≈ 12.7 mM)	–	–	C[C@H](C(=O)O)N1Cc2ccccc2C1=O	inactive	–	–	–	Active
–	2610 (≈ 10.9 mM)	3600 (≈ 15 mM)	–	1620 (≈ 6.77 mM)	Zero growth inhibition	Zero growth inhibition	O=C1c2ccccc2C(O)N1Cc1ccccc1 (stereo not drawn)	inactive	Active	–	–	–
–	–	–	–	–	–	–	CC(c1ccccc1)N1Cc2ccccc2C1=O (stereo not drawn)	inactive	–	inactive	–	–
